Data as given in ChEMBL document CHEMBL1201862, “PubChem BioAssay data set” (2004).
Calls of active or inactive are those of the source.

Tests used:
[1] = target: T1, Calpain-2 catalytic subunit (Sus scrofa, UniProt P43367); assay: pig calpain II inhibitor potency, dose response, biochemical, fluorogenic peptide substrate (AID 1420); type: functional
T1 sequence (P43367 whole entry): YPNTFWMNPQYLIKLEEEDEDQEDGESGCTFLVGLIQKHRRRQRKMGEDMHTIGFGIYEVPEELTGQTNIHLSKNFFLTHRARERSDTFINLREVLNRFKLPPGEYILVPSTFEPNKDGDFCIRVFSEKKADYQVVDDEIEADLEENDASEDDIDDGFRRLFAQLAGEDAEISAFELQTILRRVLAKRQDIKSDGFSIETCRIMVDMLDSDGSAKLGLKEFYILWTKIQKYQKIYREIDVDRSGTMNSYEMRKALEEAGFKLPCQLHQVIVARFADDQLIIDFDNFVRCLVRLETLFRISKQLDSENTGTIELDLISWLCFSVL

[2] = target: Arf-GAP with SH3 domain, ANK repeat and PH domain-containing protein 1 (Homo sapiens, UniProt Q9ULH1); type: functional;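 note: biochemical fluorescence polarization dose–response screen measuring inhibition of ASAP1; ASAP1 GAP domain stimulating GTP hydrolysis by truncated human ARF1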
Sequence of Arf-GAP with SH3 domain, ANK repeat and PH domain-containing protein 1 (Q9ULH1 whole entry, the tested form may be a part): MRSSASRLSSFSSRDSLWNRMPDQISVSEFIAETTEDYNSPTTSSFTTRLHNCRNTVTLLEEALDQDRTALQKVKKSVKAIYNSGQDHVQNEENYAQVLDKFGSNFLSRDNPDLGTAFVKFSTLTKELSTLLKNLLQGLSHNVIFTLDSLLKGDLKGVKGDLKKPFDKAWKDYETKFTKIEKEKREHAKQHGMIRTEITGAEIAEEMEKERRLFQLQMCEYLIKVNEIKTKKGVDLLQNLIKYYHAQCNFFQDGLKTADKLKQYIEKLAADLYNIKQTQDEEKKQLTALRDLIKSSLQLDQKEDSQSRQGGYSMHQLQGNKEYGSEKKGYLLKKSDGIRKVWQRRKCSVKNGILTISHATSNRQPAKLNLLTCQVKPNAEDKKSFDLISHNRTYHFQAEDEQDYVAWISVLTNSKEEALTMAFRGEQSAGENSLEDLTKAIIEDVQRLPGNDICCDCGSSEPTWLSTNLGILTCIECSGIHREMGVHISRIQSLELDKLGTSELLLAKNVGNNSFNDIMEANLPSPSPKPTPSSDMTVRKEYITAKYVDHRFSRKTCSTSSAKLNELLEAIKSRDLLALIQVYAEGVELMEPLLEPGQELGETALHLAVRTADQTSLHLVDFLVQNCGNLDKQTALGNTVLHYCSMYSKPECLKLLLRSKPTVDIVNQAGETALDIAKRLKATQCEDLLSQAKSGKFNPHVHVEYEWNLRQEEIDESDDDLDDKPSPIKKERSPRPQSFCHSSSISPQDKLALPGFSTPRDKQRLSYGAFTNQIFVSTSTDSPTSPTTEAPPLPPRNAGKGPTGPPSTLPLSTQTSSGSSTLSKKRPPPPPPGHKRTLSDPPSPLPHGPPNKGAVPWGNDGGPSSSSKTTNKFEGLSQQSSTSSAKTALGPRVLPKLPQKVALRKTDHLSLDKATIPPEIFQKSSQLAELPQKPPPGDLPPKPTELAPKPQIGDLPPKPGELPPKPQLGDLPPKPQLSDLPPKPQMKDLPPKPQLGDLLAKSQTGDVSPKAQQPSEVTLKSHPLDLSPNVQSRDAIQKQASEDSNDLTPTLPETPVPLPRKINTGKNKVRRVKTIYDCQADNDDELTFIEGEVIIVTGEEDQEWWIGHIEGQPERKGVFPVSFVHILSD

[3] = NIH-3T3 fibroblast cytotoxicity, dose response, cytotoxicity control, cell-based, fluorescence, Alamar Blue, secondary assay (AID 2327); type: functional;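 note: NIH-3T3 mouse fibroblasts cultured with fluconazole at 8 µg/mL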
[4] = C. albicans growth with fluconazole, confirmation, fluorescence, retest (AID 2467); type: functional, cell-based
Kallikrein-7 = Kallikrein-7 (Homo sapiens, UniProt P49862); assay: Fluorescence Intensity-based biochemical primary high throughput dose response assay to identify activators of kallikrein-7 (K7) zymogen.
Sequence of Kallikrein-7 (P49862 whole entry): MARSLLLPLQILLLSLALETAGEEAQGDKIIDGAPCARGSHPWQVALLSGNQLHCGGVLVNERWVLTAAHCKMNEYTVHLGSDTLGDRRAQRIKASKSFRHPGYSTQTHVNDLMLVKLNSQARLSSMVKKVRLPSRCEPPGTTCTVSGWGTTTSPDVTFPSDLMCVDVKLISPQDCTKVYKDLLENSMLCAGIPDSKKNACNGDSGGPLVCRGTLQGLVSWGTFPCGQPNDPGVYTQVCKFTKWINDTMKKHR

[5] = A549 cell cytotoxicity, dose response, cytotoxicity control, plate reader, cherry-pick, antagonist series (AID 743412); type: functional, cell-based
[6] = HepG2 cell cytotoxicity, dose response, cytotoxicity control, plate reader, cherry-pick, antagonist series (AID 743416); type: functional, cell-based
[7] = LGR2 antagonists, dose response, cell-based, HEK293, CRE-luciferase reporter, cherry pick, set 2 (AID 743343); type: functional;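 note: transfected cells were stimulated with diluted bursicon conditioned medium after compound addition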
[8] = MC4R antagonists, dose response, counter-screen for LGR2 antagonist project, cell-based, plate reader, cherry pick (AID 743444); type: functional;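 note: transfected HEK 293 cells stimulated with alpha-MSH peptide; potency of inhibitors of the alpha-MSH evoked signal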
[9] = HEK293 cell cytotoxicity, dose response, cytotoxicity control, plate reader, cherry-picked samples (AID 743446); type: functional, cell-based
[10] = target: T2, Replicative DNA helicase DnaB (Mycobacterium tuberculosis, UniProt P9WMR3); assay: DnaB intein splicing inhibitors, dose response, biochemical, cell-free fluorescence (AID 449749); type: functional
T2 sequence (P9WMR3 whole entry): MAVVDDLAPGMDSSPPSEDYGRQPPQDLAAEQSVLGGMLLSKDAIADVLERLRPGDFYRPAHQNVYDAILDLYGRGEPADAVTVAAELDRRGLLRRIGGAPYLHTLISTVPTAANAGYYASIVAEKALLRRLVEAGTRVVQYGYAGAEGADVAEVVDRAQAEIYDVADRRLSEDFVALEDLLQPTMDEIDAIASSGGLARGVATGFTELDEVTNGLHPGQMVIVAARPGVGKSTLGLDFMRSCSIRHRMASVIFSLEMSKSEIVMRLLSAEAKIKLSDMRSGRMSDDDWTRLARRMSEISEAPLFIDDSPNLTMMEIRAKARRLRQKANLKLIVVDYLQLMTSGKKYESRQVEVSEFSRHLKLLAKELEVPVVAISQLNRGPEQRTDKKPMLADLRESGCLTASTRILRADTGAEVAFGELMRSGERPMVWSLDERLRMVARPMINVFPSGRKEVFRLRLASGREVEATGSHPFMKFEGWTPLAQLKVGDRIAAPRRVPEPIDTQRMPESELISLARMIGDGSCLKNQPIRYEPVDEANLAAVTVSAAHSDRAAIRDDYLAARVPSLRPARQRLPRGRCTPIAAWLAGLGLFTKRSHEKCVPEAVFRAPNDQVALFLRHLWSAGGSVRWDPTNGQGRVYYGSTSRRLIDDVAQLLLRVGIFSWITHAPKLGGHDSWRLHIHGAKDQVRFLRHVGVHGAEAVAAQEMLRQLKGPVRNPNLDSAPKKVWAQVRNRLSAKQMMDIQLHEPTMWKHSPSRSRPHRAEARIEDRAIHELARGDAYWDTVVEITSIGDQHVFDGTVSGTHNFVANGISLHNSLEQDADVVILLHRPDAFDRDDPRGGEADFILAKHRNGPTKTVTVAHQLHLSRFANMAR

Protein RecA = target: T3, Protein RecA (Mycobacterium tuberculosis, UniProt P9WHJ3); assay: Fluorescence Cell-Free Homogeneous Dose Retest to Identify Inhibitors of RecA-Intein Splicing Activity. [Related pubchem assays (depositor defined):AID2097, AID2223, AID489010, AID492950]; type: functional
T3 sequence (P9WHJ3 whole entry): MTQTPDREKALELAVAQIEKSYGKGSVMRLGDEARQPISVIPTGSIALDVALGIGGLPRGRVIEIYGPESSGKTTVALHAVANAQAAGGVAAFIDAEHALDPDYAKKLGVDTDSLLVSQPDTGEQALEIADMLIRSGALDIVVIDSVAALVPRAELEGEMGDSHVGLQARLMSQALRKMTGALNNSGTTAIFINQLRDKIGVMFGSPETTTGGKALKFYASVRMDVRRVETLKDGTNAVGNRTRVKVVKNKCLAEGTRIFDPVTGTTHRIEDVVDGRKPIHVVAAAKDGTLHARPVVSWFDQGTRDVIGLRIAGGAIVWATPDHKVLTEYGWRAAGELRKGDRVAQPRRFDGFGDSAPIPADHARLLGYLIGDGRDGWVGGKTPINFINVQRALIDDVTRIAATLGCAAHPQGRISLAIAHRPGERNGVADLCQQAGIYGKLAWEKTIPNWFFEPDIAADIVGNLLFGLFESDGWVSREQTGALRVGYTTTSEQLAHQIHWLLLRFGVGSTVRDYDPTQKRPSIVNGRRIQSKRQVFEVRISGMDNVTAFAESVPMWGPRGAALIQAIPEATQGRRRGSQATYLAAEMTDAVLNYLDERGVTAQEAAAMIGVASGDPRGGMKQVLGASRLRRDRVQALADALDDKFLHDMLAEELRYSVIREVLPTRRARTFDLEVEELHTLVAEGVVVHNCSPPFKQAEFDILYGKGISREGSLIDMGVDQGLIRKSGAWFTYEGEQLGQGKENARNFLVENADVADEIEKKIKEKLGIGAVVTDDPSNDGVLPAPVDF

[11] = target: DNA repair protein RAD52 homolog (Homo sapiens, UniProt P43351); type: functional, biochemical
Sequence of DNA repair protein RAD52 homolog (P43351 whole entry): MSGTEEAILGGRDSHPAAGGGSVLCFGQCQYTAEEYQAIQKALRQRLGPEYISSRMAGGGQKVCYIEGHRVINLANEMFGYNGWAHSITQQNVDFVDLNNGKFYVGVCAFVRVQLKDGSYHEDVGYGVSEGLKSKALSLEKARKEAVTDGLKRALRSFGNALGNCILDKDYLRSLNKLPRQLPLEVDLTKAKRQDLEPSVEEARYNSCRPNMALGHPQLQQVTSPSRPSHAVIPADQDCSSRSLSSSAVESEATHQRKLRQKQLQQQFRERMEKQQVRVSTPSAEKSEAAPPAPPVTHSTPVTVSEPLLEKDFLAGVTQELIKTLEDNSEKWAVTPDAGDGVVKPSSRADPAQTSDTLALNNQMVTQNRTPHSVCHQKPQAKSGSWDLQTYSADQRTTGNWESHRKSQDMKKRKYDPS

Protein Wnt-3a = Protein Wnt-3a (Mus musculus, UniProt P27467); assay: SAR analysis of small molecule antagonists of Gli-SUFU in a Wnt3a luminescent reporter assay.; type: functional
Sequence of Protein Wnt-3a (P27467 whole entry): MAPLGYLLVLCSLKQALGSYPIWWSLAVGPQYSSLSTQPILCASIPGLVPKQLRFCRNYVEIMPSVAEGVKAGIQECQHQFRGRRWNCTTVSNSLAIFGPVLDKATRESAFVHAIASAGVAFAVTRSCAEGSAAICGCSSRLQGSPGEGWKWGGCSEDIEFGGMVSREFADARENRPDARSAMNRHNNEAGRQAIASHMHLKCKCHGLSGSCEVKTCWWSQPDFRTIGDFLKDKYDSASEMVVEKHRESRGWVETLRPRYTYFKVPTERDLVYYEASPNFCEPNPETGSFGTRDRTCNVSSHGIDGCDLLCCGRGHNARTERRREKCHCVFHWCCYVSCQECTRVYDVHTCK

[12] = inhibitors of PGC1a acetylation in cells, dose response, cell-based, cherry-picked samples (AID 720514); type: functional;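 note: potency may reflect raised or lowered acetylation signal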
[13] = P. falciparum Dd2 growth inhibitors, dose response, SYBR Green, cherry-picked samples (AID 1159567); type: functional, cell-based
[14] = HepG2 cell cytotoxicity, dose response, cytotoxicity control, cherry-picked samples (AID 1159577); type: functional, cell-based
[15] = Concentration-dependent survival of SW480 colon cancer line, luminescence detection with CellTiter-Glo, half-maximal inhibitory concentration (AID 1117338); type: functional
[16] = RKO cell viability reduction, dose response, CellTiter-Glo luminescence (AID 1117322); type: functional
[17] = cytotoxicity toward HCT116 cells – cell-based, CellTiter-Glo luminescence, IC50, dose response (AID 1117332); type: functional; conditions: HCT-116
[18] = SNU-C1 cell viability reduction, dose response, CellTiter-Glo luminescence (AID 1117323); type: functional, cell-based
[19] = cytotoxicity toward Colo320 cells – cell-based, CellTiter-Glo luminescence, IC50, dose response (AID 1117334); type: functional; conditions: COLO 320
[20] = cytotoxicity toward HT-29 cells – cell-based, CellTiter-Glo luminescence, IC50, dose response (AID 1117330); type: functional
[21] = CellTiter-Glo luminescent dose response of DLD-1 viability loss (AID 1117352); type: functional

SMILES: O=C(Nc1ccc2oc(=O)ccc2c1)c1ccc(-c2ccc(Cl)cc2)o1
- IC50 [1]: 18.2 µM (not active)
- IC50 [2]: 9.51 µM (active)

SMILES: C=CCO/C(O)=C1\C(C)=NC(SCC(=O)NC(=O)OCC)=C(C#N)C1c1cccnc1 (stereo unspecified)
- EC50 [3]: > 150 µM (inactive)
- EC50 [4]: 6.32 µM (active)
- EC50 (Kallikrein-7): 4.56 µM (active)

SMILES: CCCc1c(-c2ccccc2F)ncn1CCc1ccccc1OC
- AC50 [5]: 23.5 µM (active)
- AC50 [6]: 23.6 µM (active)
- AC50 [7]: 13.4 µM (active)
- AC50 [8]: 17.4 µM (active)
- AC50 [9]: 31.7 µM (active)

SMILES: Nc1ccc2[nH]cnc2c1
- AC50 [10]: 2.92 µM (active)
- EC50 (Protein RecA): 23.6 µM (active)
- AC50 [11]: 6.22 µM (active)

SMILES: COc1cc(OC)cc(C(=O)Nc2cc(N3CCCCC3)ncn2)c1
- IC50 (Protein Wnt-3a): > 21.8 µM (inactive)

SMILES: O=C(/C=C/c1cccs1)c1ccc(NC(=O)c2cccc(Br)c2)cc1
- AC50 [12]: 28.9 µM (active)

SMILES: Fc1ccc(-c2ccc([C@@H]3[C@@H]4CN(Cc5ccccc5)C[C@H]3N4)cc2)cc1
- AC50 [12]: 14.3 µM (active)
- AC50 [13]: 4.07 µM (active)
- AC50 [14]: 8.83 µM (active)

SMILES: CC(C)(C)CC(C)(C)c1cc(Cc2cc(C(C)(C)CC(C)(C)C)cc(-n3nc4ccccc4n3)c2O)c(O)c(-n2nc3ccccc3n2)c1 [BISOCTRIZOLE]
- IC50 [15]: > 20 µM (inactive)
- IC50 [16]: > 20 µM (inactive)
- IC50 [17]: > 20 µM (inactive)
- IC50 [18]: > 20 µM (inactive)
- IC50 [19]: > 20 µM (inactive)
- IC50 [20]: > 20 µM (inactive)
- IC50 [21]: > 20 µM (inactive)

SMILES: COc1ccc(-c2cc(C(=O)NC3CC3)c3ccccc3n2)cc1
- EC50 (Kallikrein-7): 86.4 µM (inactive)

SMILES: Cc1csc(CNc2ncnc3ccc(-c4ccoc4)cc23)c1
- AC50 [5]: > 52 µM (inactive)
- AC50 [6]: 27.8 µM (active)
- AC50 [7]: 0.81 µM (active)
- AC50 [8]: 0.489 µM (active)
- AC50 [9]: 28.9 µM (active)
